Consider 17 compounds from patent US7214694B2, “3-ox(adi)azolylpropanohydroxamic acids useful as procollagen C-proteinase inhibitors” (Pfizer Inc, priority 2001, dated 2007).

Tested on in one data set: not given
Assay: not given
Details: not given
Compound `CCNCc1noc([C@H](CCCC2CCCCC2)CC(=O)NO)n1` [Example 32, (3R)-6-cyclohexyl-3-{3-[(ethylamino)methyl]-1,2,4-oxadiazol-5-yl}-N-hydroxyhexanamide] had a melting point of 69.4 to 71.4 °C. For `CCCNCc1noc([C@H](CCCC2CCCCC2)CC(=O)NO)n1` [Example 33, (3R)-6-cyclohexyl-N-hydroxy-3-{3-[(propylamino)methyl]-1,2,4-oxadiazol-5-yl}hexanamide], the melting point fell in the range of 90.4 to 91.8 °C.

In turn, `CC(C)CNCc1noc([C@H](CCCC2CCCCC2)CC(=O)NO)n1` [Example 35, (3R)-6-cyclohexyl-N-hydroxy-3-{3-[(isobutylamino)methyl]-1,2,4-oxadiazol-5-yl}hexanamide] came in with a melting point of 97.8 to 99 °C.

`CCC(CC)NCc1noc([C@H](CCCC2CCCCC2)CC(=O)NO)n1` [Example 37, (3R)-6-cyclohexyl-3-(3-{[(1-ethylpropyl)amino]methyl}-1,2,4-oxadiazol-5-yl)-N-hydroxyhexanamide] yielded a melting point of 102.7 to 104.3 °C. For the compound `O=C(C[C@@H](CCCC1CCCCC1)c1nc(CNC2CCC2)no1)NO` [Example 39, (3R)-3-{3-[(cyclobutylamino)methyl]-1,2,4-oxadiazol-5-yl}-6-cyclohexyl-N-hydroxyhexanamide], the melting point was in the range of 82 to 83.9 °C. The compound `O=C(C[C@@H](CCCC1CCCCC1)c1nc(CNC2CCCCC2)no1)NO` [Example 41, (3R)-6-cyclohexyl-3-{3-[(cyclohexylamino)methyl]-1,2,4-oxadiazol-5-yl}-N-hydroxyhexanamide] had a melting point of 127 °C. Same read-out and setting: under `COCCCNCc1noc([C@H](CCCC2CCCCC2)CC(=O)NO)n1` [Example 45, (3R)-6-cyclohexyl-N-hydroxy-3-(3-{[(3-methoxypropyl)amino]methyl}-1,2,4-oxadiazol-5-yl)hexanamide] stands 60 °C. Take `O=C(C[C@@H](CCCC1CCCCC1)c1nc(CNC2CCOCC2)no1)NO` [Example 50, (3R)-6-cyclohexyl-N-hydroxy-3-{3-[(tetrahydro-2H-pyran-4-ylamino)methyl]-1,2,4-oxadiazol-5-yl}hexanamide]: the melting point fell in the range of 108.9 to 110.3 °C.

Take `O=C(C[C@@H](CCCC1CCCCC1)c1nc(CN2CCC(O)CC2)no1)NO` [Example 64, (3R)-6-cyclohexyl-N-hydroxy-3-{3-[(4-hydroxy-1-piperidinyl)methyl]-1,2,4-oxadiazol-5-yl}hexanamide]: the melting point was found to be 85 °C.

In turn, `O=C(C[C@@H](CCCC1CCCCC1)c1nc(CN2CCOCC2)no1)NO` [Example 65, (3R)-6-cyclohexyl-N-hydroxy-3-[3-(4-morpholinylmethyl)-1,2,4-oxadiazol-5-yl]hexanamide] gave a melting point of 138 to 139 °C. In turn, `O=C(C[C@@H](CCCC1CCCCC1)c1nc(CNC2CCCC2)co1)NO` [Example 69, (3R)-6-cyclohexyl-3-{4-[(cyclopentylamino)methyl]-1,3-oxazol-2-yl}-N-hydroxyhexanamide] showed a melting point of 124 to 127 °C. For the compound `O=C(C[C@@H](CCCC1CCCCC1)c1nc(CN2CCOCC2)co1)NO` [Example 70, (3R)-6-cyclohexyl-N-hydroxy-3-[4-(4-morpholinylmethyl)-1,3-oxazol-2-yl]hexanamide], the melting point fell in the range of 117 to 119 °C.

In turn, `Cc1oc([C@H](CCCC2CCCCC2)CC(=O)NO)nc1CNC1CCOCC1` [Example 71, (3R)-6-cyclohexyl-N-hydroxy-3-{5-methyl-4-[(tetrahydro-2H-pyran-4-ylamino)methyl]-1,3-oxazol-2-yl}hexanamide] returned a melting point of 108 to 110 °C.

The next data set has as its target T1, human PCP (Homo sapiens, UniProt P13497).
T1 construct: made in house; host or cells: CHO cells (stably transfected), purified from the supernatant
T1 sequence (P13497 121-986): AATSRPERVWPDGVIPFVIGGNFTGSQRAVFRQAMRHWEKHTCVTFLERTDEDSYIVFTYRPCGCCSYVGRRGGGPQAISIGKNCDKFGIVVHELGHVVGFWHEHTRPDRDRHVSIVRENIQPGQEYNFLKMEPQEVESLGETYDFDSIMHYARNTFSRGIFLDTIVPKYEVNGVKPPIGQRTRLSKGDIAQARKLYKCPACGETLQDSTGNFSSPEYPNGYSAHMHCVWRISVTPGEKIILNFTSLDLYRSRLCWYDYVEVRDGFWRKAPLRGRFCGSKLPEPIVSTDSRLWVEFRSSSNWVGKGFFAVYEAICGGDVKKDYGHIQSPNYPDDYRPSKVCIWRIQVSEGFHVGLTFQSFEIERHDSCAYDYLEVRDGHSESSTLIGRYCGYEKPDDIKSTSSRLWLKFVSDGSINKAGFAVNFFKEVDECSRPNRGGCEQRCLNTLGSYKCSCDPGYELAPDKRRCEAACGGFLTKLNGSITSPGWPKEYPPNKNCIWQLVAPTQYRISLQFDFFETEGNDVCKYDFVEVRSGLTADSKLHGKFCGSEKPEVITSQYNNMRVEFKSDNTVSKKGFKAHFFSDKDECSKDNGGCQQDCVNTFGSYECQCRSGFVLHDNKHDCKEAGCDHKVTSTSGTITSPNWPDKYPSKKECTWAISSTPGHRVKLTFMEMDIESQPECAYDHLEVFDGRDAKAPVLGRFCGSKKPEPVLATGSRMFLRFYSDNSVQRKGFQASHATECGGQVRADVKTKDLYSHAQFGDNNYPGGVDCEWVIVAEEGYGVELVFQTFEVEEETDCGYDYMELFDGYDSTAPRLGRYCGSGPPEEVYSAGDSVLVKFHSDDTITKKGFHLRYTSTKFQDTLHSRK
The data set is described as follows: fluorogenic PCP cleavage assay (PCP inhibition). The format is biochemical. As to conditions: fluorogenic substrate 3×10^−6 M, pH 7.6, 37° C. The protocol: In order to determine potency of PCP inhibitors a fluorogenic PCP cleavage assay was used. This assay is based on the template of Beekman et al. (FEBS Letters (1996), 390: 221–225) using a fluorogenic substrate. The substrate (Dabcyl-Arg-Tyr-Tyr-Arg-Ala-Asp-Asp-Ala-Asn-Val-Glu(EDANS)-NH2) contains the cleavage site of human PCP (Hojima et al., J Biol Chem (1985), 260:15996–16003). […]. The assay was performed in 96-well black fluorimeter plates and fluorescence was read continuously in a fluorimeter over 2.5 hours (λex=340 nm, λem=485 nm) at a constant 37° C. with shaking. Release of the fluorogenic signal was in linear correlation to PCP activity. Reading of the mean velocity from 30 min after start of experiment until 2.5 hours was calculated by the Biolise software. IC50 values were calculated by plotting % inhibition values against compound concentration using Tessela add in for Excel spreadsheet.
In turn, `O=C(C[C@@H](CCCC1CCCCC1)c1nc(CNS(=O)(=O)c2ccccn2)no1)NO` [Example 6, (3 R)-6-cyclohexyl-N-hydroxy-3-(3-[(2-pyridinylsulfonyl)amino]methyl-1,2,4-oxadiazol-5-yl)hexanamide] yielded an IC50 of 107 nM. `CC(C)(C)NS(=O)(=O)NCc1noc([C@H](CCCC2CCCCC2)CC(=O)NO)n1` [Example 17, (3 R)-3-[3-({[(tert-butylamino)sulfonyl]amino}methyl)-1,2,4-oxadiazol-5-yl]-6-cyclohexyl-N-hydroxyhexanamide] came in with an IC50 of 98 nM. This IC50 and that of the compound before are within 1.5-fold of each other.

For the compound `Cc1oc([C@H](CCCC2CCCCC2)CC(=O)NO)nc1CN1CCOCC1` [Example 72, (3R)-6-cyclohexyl-N-hydroxy-3-[5-methyl-4-(4-morpholinylmethyl)-1,3-oxazol-2-yl]hexanamide], the IC50 came out at 37 nM.

A further data set deals with PCP.
Assay: not given
As to conditions: 0.2M NaCl; cited from earlier work.
As to `[Cl-].[Na+]` [NaCl], the “activity of PCP, of that observed with the standard assay concentration of 0.15M” value (“activity of PCP, of that observed” for short) is given as 66%.

The data set is the same for the next values; noted with them: 0.3M NaCl; cited from earlier work.
As to `[Cl-].[Na+]` [NaCl], the “activity of PCP, of that observed” value is on record as 38%.

Staying with this data set, now noted: 0.5M NaCl; cited from earlier work.
Take `[Cl-].[Na+]` [NaCl]: the “activity of PCP, of that observed” value is 25%.
